Source: patent US7737155B2, “Nitrogen-containing heterocyclic compounds and methods of use thereof” (Schering Corporation, priority 2005, dated 2010)
pEC50: −log10 of the molar value.

What follows are compounds tested against recombinant human nicotinic acid receptor (NAR) (Homo sapiens, UniProt Q8TDS4) (assay: Nicotinic Acid Receptor Assay: inhibition of forskolin-stimulated cAMP accumulation in CHO cells (MesoScale Discovery cAMP kit)). Settings: CHO cells expressing recombinant human NAR; forskolin-stimulated cAMP; read-out: NA EC50 camp.
Sequence of recombinant human nicotinic acid receptor (NAR) (Q8TDS4 whole entry): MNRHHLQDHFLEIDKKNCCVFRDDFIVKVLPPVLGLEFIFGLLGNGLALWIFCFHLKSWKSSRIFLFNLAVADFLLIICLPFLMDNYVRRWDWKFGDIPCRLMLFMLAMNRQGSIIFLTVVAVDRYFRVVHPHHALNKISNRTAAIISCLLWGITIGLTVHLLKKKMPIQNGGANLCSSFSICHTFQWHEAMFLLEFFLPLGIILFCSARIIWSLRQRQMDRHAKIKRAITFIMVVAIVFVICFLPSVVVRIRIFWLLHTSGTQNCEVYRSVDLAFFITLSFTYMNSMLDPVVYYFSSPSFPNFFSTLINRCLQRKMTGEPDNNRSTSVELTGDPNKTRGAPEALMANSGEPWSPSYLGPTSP
Format: cell-based
Protocol: The nicotinic acid receptor agonist activity of the inventive compounds was determined by following the inhibition of forskolin-stimulated cAMP accumulation in cells using the MesoScale Discovery cAMP detection kit following the manufacture's protocol. Briefly, Chinese Hamster Ovary (CHO) cells expressing recombinant human nicotinic acid receptor (NAR) were harvested enzymatically, washed 1× in phosphate buffered saline (PBS) and resuspended in PBS containing 0.5 mM IBMX at 3×10^6 cells/mL. Ten μL of cell suspension was added to each well of a 384-well plate which contained 10 μL of test compounds. Test compounds were diluted with PBS containing 6 μM of forskolin. Plates were incubated for 30 minutes at room temperature after the addition of cells. Lysis buffer containing cAMP-Tag was added to each well (10 μL/well) as per the manufacturer's protocol. Plates were then incubated from 45 minutes to overnight. Prior to reading, 10 μL of read buffer was added to each well, and the plate was read in a Sector 6000 plate imager. The signal was converted to cAMP concentration using a standard curve run on each plate.

Compound	pEC50
Cn1c(=O)[nH]c(=O)c2c(CCC3CC3)cc(=O)oc21 [Compound 275]	6.00 to 7.00
Cn1c(=O)[nH]c2oc(=O)cc(CCC3CC3)c2c1=O [Compound 276]	6.00 to 7.00
CCn1c(=O)[nH]c(=O)c2c(CCC3CC3)cc(=O)oc21 [Compound 277]	< 6.00
CCn1c(=O)[nH]c2oc(=O)cc(CCC3CC3)c2c1=O [Compound 278]	6.00 to 7.00
COC(C)(C)CCc1cc(=O)oc2[nH]c(=O)[nH]c(=O)c12 [Compound 279]	< 6.00
O=c1cc(CCCCc2cccs2)c2c(=O)n(C3CCC3)c(=O)[nH]c2o1 [Compound 280]	< 6.00
O=c1cc(CCCc2cccs2)c2c(=O)n(C3CCC3)c(=O)[nH]c2o1 [Compound 281]	6.00 to 7.00
O=c1cc(CCc2cccs2)c2c(=O)n(C3CCC3)c(=O)[nH]c2o1 [Compound 282]	6.00 to 7.00
O=c1[nH]c(=O)c2c(C3CC3)cc(=O)oc2[nH]1 [Compound 283]	6.00 to 7.00
CC(C)(C)CCCc1cc(=O)oc2[nH]c(=O)n(C3CCC3)c(=O)c12 [Compound 284]	6.00 to 7.00
CC1(CCCc2cc(=O)oc3[nH]c(=O)n(C4CCC4)c(=O)c23)CC1 [Compound 285]	6.00 to 7.00
O=c1[nH]c(=O)c2c(CCCC3CCC3)cc(=O)oc2[nH]1 [Compound 286]	7.00 to 12.00
O=c1[nH]c(=O)c2c(CCCOC3CCCCC3)cc(=O)oc2[nH]1 [Compound 287]	< 6.00
CC(C)(C#N)CCCc1cc(=O)oc2[nH]c(=O)[nH]c(=O)c12 [Compound 288]	< 6.00
CCn1c(=O)[nH]c2oc(=O)cc(C)c2c1=O [Compound 289]	< 6.00
O=c1[nH]c(=O)c2c(CCCOC3CCC3)cc(=O)oc2[nH]1 [Compound 290]	6.00 to 7.00
CCn1c(=O)[nH]c(=O)c2c(C)cc(=O)oc21 [Compound 291]	< 6.00
CCCCc1c(-c2ccccc2)c(=O)oc2[nH]c(=O)[nH]c(=O)c12 [Compound 292]	6.00 to 7.00
O=c1[nH]c(=O)c2c(CCC(C3CC3)C3CC3)cc(=O)oc2[nH]1 [Compound 293]	6.00 to 7.00
N#CC1(CCCc2cc(=O)oc3[nH]c(=O)[nH]c(=O)c23)CC1 [Compound 294]	6.00 to 7.00
CC1CC1CCc1cc(=O)oc2[nH]c(=O)[nH]c(=O)c12 (stereo not shown) [Compound 295]	6.00 to 7.00
CC1CC(c2cc(=O)oc3[nH]c(=O)[nH]c(=O)c23)C1 (stereo not shown) [Compound 296]	6.00 to 7.00
O=c1[nH]c(=O)c2c(CCCC3CCCC3)cc(=O)oc2[nH]1 [Compound 297]	7.00 to 12.00
CCc1cc(=O)oc2nc(O[C@H](C)c3ccc4ccccc4c3)[nH]c(=O)c12 [Compound 500]	6.00 to 7.00
CCc1cc(=O)oc2nc(O[C@@H](C)c3ccc4ccccc4c3)[nH]c(=O)c12 [Compound 501]	7.00 to 12.00

Compound	pEC50
CCc1cc(=O)oc2nc(OCc3cc(Cl)cc(Cl)c3)[nH]c(=O)c12 [Compound 503]	6.00 to 7.00
CCc1cc(=O)oc2nc(OCc3ccc(C)cc3C)[nH]c(=O)c12 [Compound 504]	6.00 to 7.00
CCc1cc(=O)oc2nc(OCc3cc(C)cc(C)c3)[nH]c(=O)c12 [Compound 505]	6.00 to 7.00
CCc1cc(=O)oc2nc(OCc3cc(F)cc(F)c3)[nH]c(=O)c12 [Compound 506]	< 6.00
CCc1cc(=O)oc2nc(OCc3cc(Cl)ccc3OC)[nH]c(=O)c12 [Compound 507]	7.00 to 12.00
CCc1cc(=O)oc2nc(OC(C)c3ccccc3C(F)(F)F)[nH]c(=O)c12 (stereo not shown) [Compound 508]	< 6.00
CCc1cc(=O)oc2nc(OCc3ccccc3-c3ccc(F)cc3)[nH]c(=O)c12 [Compound 510]	< 6.00
CCc1cc(=O)oc2nc(OCc3cc(C)c(OC)c(C)n3)[nH]c(=O)c12 [Compound 511]	< 6.00
CCc1cc(=O)oc2nc(OCc3ocnc3C)[nH]c(=O)c12 [Compound 513]	6.00 to 7.00
CCc1cc(=O)oc2nc(OCc3ccc(C(F)(F)F)cc3C(F)(F)F)[nH]c(=O)c12 [Compound 514]	< 6.00
CCc1cc(=O)oc2nc(OCc3ccc(Cl)cc3OC)[nH]c(=O)c12 [Compound 515]	6.00 to 7.00
CCc1cc(=O)oc2nc(OCc3ccc(C)c(C(F)(F)F)c3)[nH]c(=O)c12 [Compound 516]	< 6.00
CCc1cc(=O)oc2nc(OCc3ccc(-c4ccccc4)cc3)[nH]c(=O)c12 [Compound 517]	< 6.00
CCc1cc(=O)oc2nc(OCc3ccc(-c4ccccc4)cc3F)[nH]c(=O)c12 [Compound 518]	6.00 to 7.00
CCOC(=O)COc1nc2oc(=O)cc(CC)c2c(=O)[nH]1 [Compound 519]	< 6.00
CCc1cc(=O)oc2nc(OCc3cccc(-c4ccccc4)n3)[nH]c(=O)c12 [Compound 520]	< 6.00
CCc1cc(=O)oc2nc(OCc3ccc(Cl)c(C(F)(F)F)c3)[nH]c(=O)c12 [Compound 521]	6.00 to 7.00
CCc1cc(=O)oc2nc(OCC#Cc3ccccc3)[nH]c(=O)c12 [Compound 522]	6.00 to 7.00
CCc1cc(=O)oc2nc(OCc3ccncc3)[nH]c(=O)c12 [Compound 523]	7.00 to 12.00
CCc1cc(=O)oc2nc(OCCOc3ccccc3)[nH]c(=O)c12 [Compound 525]	6.00 to 7.00
CCc1cc(=O)oc2nc(OCc3c(-c4ccccc4)noc3C)[nH]c(=O)c12 [Compound 526]	6.00 to 7.00
CCc1cc(=O)oc2nc(OCc3ccc4ccccc4n3)[nH]c(=O)c12 [Compound 527]	6.00 to 7.00
CCc1cc(=O)oc2nc(OCc3nccc4ccccc34)[nH]c(=O)c12 [Compound 528]	6.00 to 7.00
CCc1cc(=O)oc2nc(OCc3cc(C)nn3C)[nH]c(=O)c12 [Compound 529]	6.00 to 7.00
CCc1cc(=O)oc2nc(OCc3cc(C)n(C)n3)[nH]c(=O)c12 [Compound 530]	6.00 to 7.00

Compound	pEC50
CCc1cc(=O)oc2nc(OCc3c(C)noc3-c3ccccc3)[nH]c(=O)c12 [Compound 531]	6.00 to 7.00
CCc1cc(=O)oc2nc(OCc3snnc3-c3ccccc3)[nH]c(=O)c12 [Compound 532]	6.00 to 7.00
CCc1cc(=O)oc2nc(OCc3sccc3-n3cccc3)[nH]c(=O)c12 [Compound 533]	< 6.00
CCc1cc(=O)oc2nc(OCc3cc(Br)cs3)[nH]c(=O)c12 [Compound 534]	6.00 to 7.00
CCc1cc(=O)oc2nc(OCc3nn(-c4ccccc4)nc3C)[nH]c(=O)c12 [Compound 535]	6.00 to 7.00
CCc1cc(=O)oc2nc(OCc3ccc(Br)cn3)[nH]c(=O)c12 [Compound 536]	6.00 to 7.00
CCc1cc(=O)oc2nc(OCCc3cccc4ccccc34)[nH]c(=O)c12 [Compound 537]	< 6.00
CCc1cc(=O)oc2nc(OCc3cc4ccccc4s3)[nH]c(=O)c12 [Compound 538]	6.00 to 7.00
CCc1cc(=O)oc2nc(OCc3cc(C)ccc3C)[nH]c(=O)c12 [Compound 539]	6.00 to 7.00
CCc1cc(=O)oc2nc(OCc3ncoc3-c3ccccc3)[nH]c(=O)c12 [Compound 540]	6.00 to 7.00
CCc1cc(=O)oc2nc(OCc3csc(-c4cccs4)n3)[nH]c(=O)c12 [Compound 541]	6.00 to 7.00
CCc1cc(=O)oc2nc(OCc3cc(-c4ccccc4)oc3C)[nH]c(=O)c12 [Compound 542]	< 6.00
CCc1cc(=O)oc2nc(OCc3ccc4c(c3)nnn4C)[nH]c(=O)c12 [Compound 543]	6.00 to 7.00
CCc1cc(=O)oc2nc(OCc3cccc(OC)n3)[nH]c(=O)c12 [Compound 544]	6.00 to 7.00
CCc1cc(=O)oc2nc(OCc3ccc(C(F)(F)F)cn3)[nH]c(=O)c12 [Compound 545]	6.00 to 7.00
CCOC(=O)c1cccc(-c2ccccc2COc2nc3oc(=O)cc(CC)c3c(=O)[nH]2)c1 [Compound 547]	6.00 to 7.00
CCc1cc(=O)oc2nc(OCc3ccccc3-c3ccc(CO)cc3)[nH]c(=O)c12 [Compound 548]	6.00 to 7.00
CCc1cc(=O)oc2nc(OCc3ccccc3-c3cccc(COC)c3)[nH]c(=O)c12 [Compound 549]	6.00 to 7.00
CCc1cc(=O)oc2nc(OCc3ccccc3-c3cccc(C)c3)[nH]c(=O)c12 [Compound 550]	< 6.00
CCc1cc(=O)oc2nc(OCc3ccccc3-c3cccc(C(=O)NC)c3)[nH]c(=O)c12 [Compound 551]	6.00 to 7.00
CCc1cc(=O)oc2nc(OCc3ccccc3-c3cccc(C(=O)N(C)C)c3)[nH]c(=O)c12 [Compound 552]	6.00 to 7.00
CCc1cc(=O)oc2nc(OCc3ccccc3-c3cccc(C(=O)NC4CC4)c3)[nH]c(=O)c12 [Compound 553]	< 6.00
CCc1cc(=O)oc2nc(OCc3ccccc3-c3cccc(Cl)c3)[nH]c(=O)c12 [Compound 554]	< 6.00
CCc1cc(=O)oc2nc(OCc3ncccc3C)[nH]c(=O)c12 [Compound 556]	< 6.00
CCc1cc(=O)oc2nc(OCc3cccc(-c4ccc(F)c(Cl)c4)c3)[nH]c(=O)c12 [Compound 558]	< 6.00

Same assay, conditions: NA EC50 camp (nM), CHO cells expressing recombinant human NAR; forskolin-stimulated cAMP

Compound	EC50
CCc1cc(=O)oc2nc(OCc3ccccc3-c3cccc(C#N)c3)[nH]c(=O)c12 [Compound 509]	100 to 1000 nM
CCC#CCOc1nc2oc(=O)cc(CC)c2c(=O)[nH]1 [Compound 512]	0.001 to 100 nM
CCc1cc(=O)oc2nc(OCCOC)[nH]c(=O)c12 [Compound 524]	100 to 1000 nM
C#CCOc1nc2oc(=O)cc(CC)c2c(=O)[nH]1 [Compound 555]	100 to 1000 nM
CCCC#CCOc1nc2oc(=O)cc(CC)c2c(=O)[nH]1 [Compound 557]	0.001 to 100 nM

Same assay, conditions: inhibition of forskolin-stimulated cAMP accumulation, CHO cells expressing recombinant human NAR; read-out: NA EC50 camp

Compound	pEC50
CCCCc1c(-c2ccccc2)c(=O)oc2[nH]c(=O)[nH]c(=O)c12 [Compound 292]	6.52
O=c1[nH]c(=O)c2c(CCCC3CCCC3)cc(=O)oc2[nH]1 [Compound 297]	7.25
